Consider 56 compounds from patent publication US20260355169A1, “METHODS OF TREATING CANCERS USING ISOQUINOLINE OR 6-AZA-QUINOLINE DERIVATIVES” (Black Diamond Therapeutics, Inc., priority 2022, published 2026).

In the assay the test system is BaF3 BRAF-KIAA1549 fusion cells. Description: BaF3 BRAF-KIAA1549 fusion cell proliferation assay. The note with it: Mus musculus, BaF3, 96 h, read-out: IC50, inhibition of cell growth, BaF3-BRAF:KIAA1549 Fusion. It counts as cell-based. The procedure: Retroviral Production: The BRAF-KIAA1549 fusion mutant was subcloned into pMXs-IRES-Blasticidin (RTV-016, Cell Biolabs, San Diego, CA). […]. Briefly, HEK 293T cells were plated in Poly-D-lysine coated 6-well plate (2.5×10^5 cells per well) and incubated overnight. The next day, retroviral plasmids (1 μg of BRAF-KIAA fusion mutant, 0.32 μg of pCMV-Gag-Pol and 0.165 μg pCMV-VSV-G) were mixed in 300 μL of Optimem (31985, Life Technologies). The mixture was incubated at room temperature for 5 minutes and then added to Optimem containing transfection reagent Lipofectamine (11668, Invitrogen) and incubated for 20 minutes. The mixture was then added dropwise to HEK 293T cells. The next day the medium was replaced with fresh culture medium and retrovirus was harvested at 24 hours.
Generation of BRAF-KIAA1549 fusion stable cell line: BaF3 cells were plated in V-bottom 96 well plate (COSTAR #3894) in 80 μL of RPMI/10% FBS and 0.01 ng/mL mouse IL-3, supplemented with 8 μg/mL polybrene (4×10^4 cells/well). Cells were transduced with 20 μL of BRAF-KIAA1549 fusion viral supernatant by centrifuging for 30 minutes at 1000 rpm. Cells were placed in a 37 °C incubator overnight. Next day 100 μL of RPMI/10% FBS and 0.01 ng/mL mouse IL-3 was added. After 24 hours, 100 μL of cells were transferred to a 24 well plate containing 900 μL of RPMI/10% FBS and 15 μg/mL Blasticidin. Contents of the 24 well plate were sampled for cell viability via CellTiterGlo (Promega) over a 2-week period.
Assay for cell proliferation: BaF3 BRAF-KIAA1549 fusion cells were resuspended at 1.5×10^5 c/mL in RPMI containing 10% Heat Inactivated FBS, 1% L-glutamine and dispensed in duplicate ([…]) into 384 well plates. To determine the effect of compound on cell proliferation, BaF3 BRAF-KIAA1549 fusion cells were incubated for 96 hours in the presence of vehicle control (DMSO) or compound at varying concentrations. Inhibition of cell growth was determined by luminescent quantification (Envision by Perkin Elmer) of intracellular ATP content using CellTiterGlo (Promega), according to the protocol provided by the manufacturer. To determine the IC50 values, the vehicle-treated cells were normalized as viable cells and analyzed using the CDD Vault, Collaborative Drug Discovery, Burlingame, CA (the Levenberg-Marquardt algorithm; Levenberg, K, […]; Marquardt, D., 1963).
Table A assigns each compound a code for potency in the BaF3 BRAF-KIAA1549 fusion cell proliferation assay: A, B, C, or D. According to the code, A represents an IC50 value<20 nM; B represents an IC50 value≥20 nM and <100 nM; C represents an IC50 value≥100 nM and <500 nM; and D represents an IC50 value≥500 nM.
Broadly, the IC50 is the concentration needed to halve the response being measured. As for `CNc1cc2ncc(-c3cc(NC(=O)c4cnc5n4CC(C(F)(F)F)CC5)ccc3C)cc2cn1` (centres unmarked) [compound 220], the IC50 was in the range of 20 to 100 nM.

On to `CNc1cc2ncc(-c3cc(NC(=O)c4ccnc(C5(F)CC5)c4)c(F)cc3C)cc2cn1` [compound 221], for which the IC50 is 20 to 100 nM.

For the compound `CNc1cc2ncc(-c3cc(NC(=O)c4ccnc(C(C)(C)F)c4)c(F)cc3C)cc2cn1` [compound 222], the IC50 lay within 20 to 100 nM. For `CNc1cc2ncc(-c3cc(NC(=O)c4cccc(C(C)(C)C#N)c4)c(F)cc3C)cc2cn1` [compound 223] the value was 20 to 100 nM; for `CNc1cc2ncc(-c3cc(NC(=O)c4cc(C(F)(F)F)ccn4)c(F)cc3C)cc2cn1` [compound 224], 100 to 500 nM. As for `CNc1cc2ncc(-c3cc(NC(=O)c4cnc5n4CC(C)CC5)cnc3C)cc2cn1` (centres unmarked) [compound 225], the figure is 20 to 100 nM. In the case of `CNc1cc2ncc(-c3cc(NC(=O)c4ccccc4NC(C)C(F)F)cnc3C)cc2cn1` (centres unmarked) [compound 226], the concentration for half-maximal inhibition (IC50) is 20 to 100 nM. For `CCC(C)c1ccnc(C(=O)Nc2cnc(C)c(-c3cnc4cc(NC)ncc4c3)c2)c1` (centres unmarked) [compound 227] the value was 20 to 100 nM; for `CNc1cc2ncc(-c3cc(NC(=O)c4noc5c4CCCC5)ccc3C)cc2cn1` [compound 228], 100 to 500 nM. Turning to `CNc1cc2ncc(-c3cc(NC(=O)c4n[nH]c5c4CCCC5)cnc3C)cc2cn1` [compound 229], the IC50 was in the range of 20 to 100 nM. On to `CNc1cc2ncc(-c3cc(NC(=O)c4cnc5n4C[C@H](C)CC5)ccc3C)cc2cn1` [compound 230], for which the IC50 lay in the range of 20 to 100 nM. For `CNc1cc2ncc(-c3cc(NC(=O)c4cnc5n4C[C@@H](C)CC5)ccc3C)cc2cn1` [compound 231] the value was 20 to 100 nM; for `CNc1cc2ncc(-c3cc(NC(=O)c4cnc5n4CCCCC5)cnc3C)cc2cn1` [compound 232], 100 to 500 nM. For `CNc1cc2ncc(-c3cc(NC(=O)c4nn(C)c5c4CCCC5)cnc3C)cc2cn1` [compound 233], the IC50 was in the range of 20 to 100 nM. For the compound `CNc1cc2ncc(-c3cc(NC(=O)c4csc5c4CCCC5)cnc3C)cc2cn1` [compound 234], the IC50 was in the range of 20 to 100 nM.

`CNc1cc2ncc(-c3cc(NC(=O)c4csc5c4CCC(C)C5)cnc3C)cc2cn1` (centres unmarked) [compound 235]: the half-inhibitory concentration (IC50) lay in the range of 20 to 100 nM. For `CNc1cc2ncc(-c3cc(NC(=O)c4noc5c4C[C@@H](C)CC5)ccc3C)cc2cn1` [compound 236] the value was 20 to 100 nM.

Consider `CNc1cc2ncc(-c3cc(NC(=O)c4noc5c4C[C@H](C)CC5)ccc3C)cc2cn1` [compound 237], for which the IC50 was 20 to 100 nM. As for `CNc1cc2ncc(-c3cc(NC(=O)c4cnc5n4CC(C(F)F)CC5)ccc3C)cc2cn1` (centres unmarked) [compound 238], the figure is 20 to 100 nM. As for `CNc1cc2ncc(-c3cc(NC(=O)c4cccc5c4OC(C)C5)cnc3C)cc2cn1` (centres unmarked) [compound 239], the IC50 was more than 500 nM. Take `CNc1cc2ncc(-c3cc(NC(=O)c4cnn(CC(F)(F)F)c4C)cnc3C)cc2cn1` [compound 240]: the IC50 was more than 500 nM. For `CNc1cc2ncc(-c3cc(NC(=O)c4noc5c4CC(C(C)(C)C)CC5)cnc3C)cc2cn1` (centres unmarked) [compound 241] the value was 100 to 500 nM; for `CNc1cc2ncc(-c3cc(NC(=O)c4cc(C(O)CC(F)(F)F)ccn4)cnc3C)cc2cn1` (centres unmarked) [compound 242], 20 to 100 nM. Consider `CNc1cc2ncc(-c3cc(NC(=O)c4cnc5n4CC(C(F)(F)F)CC5)cnc3C)cc2cn1` (centres unmarked) [compound 243], for which the IC50 was in the range of 20 to 100 nM. With `CNc1cc2ncc(-c3cc(NC(=O)c4n[nH]c5c4CN(C)CC5)cnc3C)cc2cn1` [compound 244], the IC50 was more than 500 nM. Consider `CNc1cc2ncc(-c3cc(NC(=O)c4noc5c4CCCCC5)cnc3C)cc2cn1` [compound 245], for which the IC50 is 20 to 100 nM. For `CNc1cc2ncc(-c3cc(NC(=O)c4noc5c4COCC5)cnc3C)cc2cn1` [compound 246], the IC50 is more than 500 nM. As for `CNc1cc2ncc(-c3cc(NC(=O)c4noc5c4CC(F)(F)CC5)cnc3C)cc2cn1` [compound 247], the IC50 was 20 to 100 nM. `CNc1cc2ncc(-c3cc(NC(=O)c4cc([C@@H](C)C(C)(F)F)ccn4)cnc3C)cc2cn1` [compound 248]: the IC50 is 20 to 100 nM.

Regarding `CNc1cc2ncc(-c3cc(NC(=O)c4cc([C@H](O)C(C)(F)F)ccn4)cnc3C)cc2cn1` [compound 249], the IC50 was in the range of 20 to 100 nM. With `CNCC(F)(F)c1cccc(C(=O)Nc2cnc(C)c(-c3cnc4cc(NC)ncc4c3)c2)n1` [compound 250], the IC50 is more than 500 nM.

Regarding `CNc1cc2ncc(-c3cc(NC(=O)c4cnc5n4CC(C(F)F)CC5)cnc3C)cc2cn1` (centres unmarked) [compound 251], the IC50 was in the range of 100 to 500 nM.

Regarding `CNc1cc2ncc(-c3cc(NC(=O)c4n[nH]c5c4C[C@@H]4C[C@H]54)cnc3C)cc2cn1` [compound 252], the IC50 lay in the range of 20 to 100 nM.

`CNc1cc2ncc(-c3cc(NC(=O)c4n[nH]c5c4C[C@H]4C[C@@H]54)cnc3C)cc2cn1` [compound 253]: the IC50 fell in the range of 20 to 100 nM. Turning to `CNc1cc2ncc(-c3cc(NC(=O)c4noc5c4CN(C(C)C)CC5)cnc3C)cc2cn1` [compound 254], the IC50 lay in the range of 100 to 500 nM. Regarding `CNc1cc2ncc(-c3cc(NC(=O)c4cc(C(C)(C)C(N)=O)ccn4)ccc3C)cc2cn1` [compound 255], the IC50 is 20 to 100 nM. `CNc1cc2ncc(-c3cc(NC(=O)c4nccc(C(C)C)c4Cl)cnc3C)cc2cn1` [compound 256]: the IC50 was 20 to 100 nM. `CNc1cc2ncc(-c3cc(NC(=O)c4noc5c4CC(C)(C)CC5)cnc3C)cc2cn1` [compound 257]: the IC50 lay within 20 to 100 nM. `CNc1cc2ncc(-c3cc(NC(=O)c4cnc5n4C[C@@H](C)CC5)cnc3C)cc2cn1` [compound 258]: the IC50 fell in the range of 20 to 100 nM.

Take `CNc1cc2ncc(-c3cc(NC(=O)c4cnc5n4C[C@H](C)CC5)cnc3C)cc2cn1` [compound 259]: the IC50 was 20 to 100 nM.

Regarding `CCC(OC)c1ccnc(C(=O)Nc2cnc(C)c(-c3cnc4cc(NC)ncc4c3)c2)c1` (centres unmarked) [compound 260], the IC50 is 20 to 100 nM. Regarding `CNc1cc2ncc(-c3cc(NC(=O)c4n[nH]c5c4CC(C)CC5)ccc3C)cc2cn1` (centres unmarked) [compound 261], the IC50 is less than 20 nM. Turning to `CNc1cc2ncc(-c3cc(NC(=O)c4n[nH]c5c4CCCC5(C)C)ccc3C)cc2cn1` [compound 262], the IC50 is 20 to 100 nM. For `CNc1cc2ncc(-c3cc(NC(=O)c4c[nH]c5ccc(C)cc45)ccc3C)cc2cn1` [compound 263] the value was less than 20 nM. With `CNc1cc2ncc(-c3cc(NC(=O)c4n[nH]c5c4C[C@H](C)O[C@@H]5C)ccc3C)cc2cn1` [compound 264], the IC50 fell in the range of 20 to 100 nM. In the case of `CNc1cc2ncc(-c3cc(NC(=O)c4cnn5c4CC(C)CC5)ccc3C)cc2cn1` (centres unmarked) [compound 265], the IC50 is less than 20 nM. As for `CNc1cc2ncc(-c3cc(NC(=O)c4c[nH]c5c4CC(C)CC5)ccc3C)cc2cn1` (centres unmarked) [compound 266], the figure is 20 to 100 nM. As for `CNc1cc2ncc(-c3cc(NC(=O)N4CC[C@@H](CC(F)(F)F)C4)ccc3C)cc2cn1` [compound 267], the figure is less than 20 nM; as for `CNc1ncc2cc(-c3cc(NC(=O)c4ccnc(C5(F)CC5)c4)ccc3C)cnc2c1Cl` [compound 269], 100 to 500 nM. As for `CNc1ncc2cc(-c3cc(NC(=O)c4ccnc(C(C)(C)C#N)c4)cnc3C)cnc2c1Cl` [compound 270], the figure is more than 500 nM.

Take `CNc1ncc2cc(-c3cc(NC(=O)c4ccnc(C5(F)CC5)c4)ccc3C)cnc2c1C#N` [compound 271]: the IC50 was in the range of 20 to 100 nM.

With `CNc1cc2c(C#N)cc(-c3cc(NC(=O)c4ccnc(C5(F)CC5)c4)ccc3C)cc2cn1` [compound 272], the IC50 fell in the range of 20 to 100 nM. `CNc1cc2c(C#N)cc(-c3cc(NC(=O)c4ccnc(C(F)(F)F)c4)ccc3C)cc2cn1` [compound 273]: the IC50 lay in the range of 100 to 500 nM. For the compound `Cc1ncc(NC(=O)c2cc(C(F)(F)F)ccn2)cc1-c1ccc2c3c(ncc2c1)NC(=O)C3` [compound 274], the IC50 was less than 20 nM. With `Cc1ccc(NC(=O)c2cc(C(C)(C)C#N)ccn2)cc1-c1ccc2c3c(ncc2c1)NC(=O)C3` [compound 275], the IC50 lay within 20 to 100 nM. As for `Cc1ccc(NC(=O)c2ccnc(C(C)(C)F)c2)cc1-c1ccc2c3c(ncc2c1)NC(=O)C3` [compound 276], the IC50 was less than 20 nM.
